Patent US5919799A, “Imidazothiazole compound” (Nikken Chemicals Co., Ltd., priority 1995, dated 1999)
Where a name gives a salt, the structure may show the parent alone.

How the values were obtained:
[1] = test system: VJ-300 cells (multidrug resistant clones of KB cells); assay: In vitro suppression of proliferation (colony formation) of VJ-300 cells by co-administration with doxorubicin; format: cell-based, Human; conditions: ADM alone (Control); relative to KB = 1
Procedure: In Vitro Test of Effect of Suppression of Proliferation of Cancer Cells by Co-Administration with Doxorubicin
(§1) Human epipharynx cancer derived cancer KB cells (sensitive cells) and their multidrug resistant clones VJ-300 cells (resistant cells) were used as test cells. As the incubation solution, an Eagle MEM medium (made by Nissui Seiyakusha) containing 10% fetal calf serum (made by Flow Laboratories Co.) and 0.292 mg/ml L-glutamine (made by Flow Laboratories Co.) was used. The action overcoming resistance to an anti-neoplastic agent and effect in enforcing the effect of an anti-neoplastic agent obtained through co-administration of the anti-neoplastic agent doxorubicin (adriamycin, ADM) and the test compounds were tested as follows:
The test cells were suspended in the incubation medium and adjusted to a cell density of about 200 cells/ml. 2 ml portions of the cell suspension were placed in petri dishes and incubated in a carbon dioxide gas incubator (5% CO2, 95% air) at 37° C. for 24 hours. […] After the end of the incubation, the samples were fixed by methanol, Giemsa staining was performed, the number of colonies in each dish was counted, and a volume reaction curve was prepared. […]

[2] = test system: VCR resistant murine leukemia (P388/VCR) cells; assay: In vivo effect of overcoming resistance with etoposide (VP-16) in P388/VCR bearing mice (intravenous); design: species or system CDF1 male mice; conditions: VP-16 (3 mg/kg) + compound (40 mg/kg), i.v., five days; for Effect overcoming resistance (T/V %): vs VP-16 alone; for Rate of prolongation of life (T/C %): vs non-administered control
Procedure: (b) Separately, groups of six CDF1 male mice were intravenously given transplants of 1.2×10^5 VCR resistant murine leukemia (P388/VCR) cells. The compound of the present invention (20 or 40 mg/kg) was dissolved in 0.01N hydrochloric acid. Etoposide (VP-16, 3 mg/kg) was dissolved in a physiological saline solution. These were administered intravenously for five days and the days of survival were found. In the same way as (a), the rate of prolongation of life with respect to the control (T/C) and the effect in overcoming the resistance to an anti-neoplastic agent (T/V) were found. In Table 6, the control is the non-administered group, VP-16 alone is the group administered VP-16 (3 mg/kg) and VP-16+Compound 5 is the group co-administered VP-16 (3 mg/kg) and Compound 5 (40 mg/kg) and so on to VP-16+Compound 16 which is the group co-administered VP-16 (3 mg/kg) and Compound 16 (40 mg/kg).

[3] = Acute toxicity test (a), intraperitoneal, three animals per group; conditions: mouse, in vivo, ip, ICR male mice, up to 7 days after administration
From the text: (§2) (a) Animals used: ICR male mice (Charles River Japan), 7 to 8 weeks old, were used three to a group.
(§3) Test method: The compound of the present invention was suspended in 0.5% sodium carboxymethyl cellulose(CMC-Na) containing 0.1% Tween 80. […] The survival of the animals was examined up to 7 days after administration, then the Van Der Wearder area method was used to calculate the LD50 value.

[4] = test system: VCR resistant murine leukemic (P388/VCR) cells; assay: In vivo effect of overcoming resistance to vincristine in VCR resistant murine leukemia cell bearing mice (intraperitoneal); design: species or system CDF1 male mice; conditions: VCR (100 μg/kg) + compound (100 mg/kg), i.p., 5 days
Procedure: (a) 10^6 VCR resistant murine leukemic (P388/VCR) cells were transplanted intraperitoneally to groups of six CDF1 male mice. The compound of the present invention (10 or 100 mg/kg) was suspended in 0.5% sodium carboxymethyl cellulose containing 0.1% Tween 80, while the VCR (100 μg/kg) was dissolved in physiological saline. These were each administered intraperitoneally over 5 days and the mice observed to find the days of survival and the rate of prolongation of life with respect to the control (T/C). The effect in overcoming resistance to an anti-neoplastic agent (T/V) was found from the following formula:
Effect in overcoming resistance to anti-neoplastic agent (T/V%)=(Rate of prolongation of life when co-administering VCR and compound of present invention (T/C%))/(Rate of prolongation of life by VCR alone
In Table 5, "Control" is the non-administered group, VCR alone is the group administered just VCR (100 μg /kg), VCR+Compound 1 is the group co-administered VCR (100 μg /kg) and Compound 1 (100 mg/kg) and so on to VCR+Compound 14* which is the group co-administered VCR (100 μg /kg) and Compound 14 (10 mg/kg).

[5] = test system: VJ-300 cells (multidrug resistant clones of KB cells); assay: In vitro suppression of proliferation of VJ-300 cells by co-administration with vincristine; format: cell-based, Human; conditions: co-administered VCR and test compound (1 μg/ml), relative to VCR alone in KB = 1
Procedure: as §1, with “As” for “Human epipharynx cancer derived cancer KB cells (sensitive cells) and their multidrug resistant clones VJ-300 cells (resistant cells) were used as test cells. As”
The test cells were suspended in the incubation medium and adjusted to a cell density of about 200 cells/ml. 2 ml portions of the cell suspension were placed in petri dishes and incubated in a carbon dioxide gas incubator (5% CO2, 95% air) at 37° C. for 24 hours. Next, predetermined concentrations of aqueous ADM solutions and dimethyl sulfoxide (DMSO) solutions of predetermined concentrations of the test compounds were added into 5 to 10 μl portions, then incubation was continued for 7 days. After the end of the incubation, the samples were fixed by methanol, Giemsa staining was performed, the number of colonies in each dish was counted, and a volume reaction curve was prepared. This was used to calculate the ADM concentration at a 50% cell survival rate (LD50) and judge the action overcoming resistance to an anti-neoplastic agent and effect in enhancing the effect of an anti-neoplastic agent.
The LD50 concentration of ADM in the ADM control group for KB cells was shown as the resistance degree "1" and the other LD50 concentrations were indexed against this to calculate the resistance degrees. In Table 2, ADM alone (control) is the group administered ADM alone, ADM+Compound 1 is the group co-administered ADM and Compound 1 (1 μg /ml) and so on down to ADM+Compound 19 which is the group co-administered ADM and Compound 19 (1 μg /ml).
A volume reaction curve was prepared and the resistance calculated. In the Tables, VCR alone (control) is the group administered VCR alone, VCR+Compound 1 is the group co-administered VCR and Compound 1(1 μg /ml) and so on down to VCR+Compound 16 which is the group co-administered VCR and Compound 16 (1 μg/ml).

[6] = Acute toxicity test (b), intraperitoneal, five mice per group; conditions: mouse, in vivo, ip, groups of five, 1000 mg to 250 mg/kg
Procedure: as §2, §3
(b) Groups of five mice were tested in the same way as in (a) except that the drug was administered intraperitoneally from 1000 mg by a rate of 1/√2 until 250 mg/kg.

Row | Compound | Resistance at ADM, VJ-300 (resistance degree) [1] | Days of survival [2] | Effect overcoming resistance (T/V %) [2] | Rate of prolongation of life (T/C %) [2] | LD50 at 168 h [3] | Days of survival [4] | Effect overcoming resistance (T/V %) ([4]; vs VCR alone) | Rate of prolongation of life (T/C %) ([4]; vs non-administered control) | Resistance with VCR, VJ-300 (resistance degree) ([5]; Table 3) | LD50 at 168 h [6] | Resistance with VCR, VJ-300 (resistance degree) ([5]; Table 4)
1 | COc1cccc2c1C(=O)c1c(O)c3c(c(O)c1C2=O)C[C@@](O)(C(=O)CO)C[C@@H]3O[C@H]1C[C@H](N)[C@H](O)[C@H](C)O1 [ADM, doxorubicin] | 46.7 | – | – | – | – | – | – | – | – | – | –
2 | CN1CCCC(C(=O)NN=Cc2c(-c3ccccc3)nc3sc4c(n23)CCCC4)C1 (stereo not shown) [Compound 5, 5,6,7,8-tetrahydro-2-phenyl-3-(N-methyl-3-piperidylcarbonylaminoiminomethyl)imidazo[2,1-b]benzothiazole] | – | 14.0 days | 125% | 136% | 604 mg/kg | 14.38 days | 130% | 138% | 1.2 | – | –
3 | CCCN1CCCC(C(=O)NN=Cc2c(-c3ccccc3)nc3sc4c(n23)CCCC4)C1 (stereo not shown) [Compound 12, 5,6,7,8-tetrahydro-2-phenyl-3-[N-propyl-3-piperidylcarbonylaminoiminomethyl]imidazo[2,1-b]benzothiazole hydrochloride] | – | 13.2 days | 118% | 128% | – | – | – | – | – | 592 mg/kg | 1.3
4 | CN1CCCC(C(=O)NN=Cc2c(-c3ccccc3)nc3sc4ccccc4n23)C1 (stereo not shown) [Compound 15, 2-phenyl-3-[N-methyl-3-piperidylcarbonylaminoiminomethyl]imidazo[2,1-b]benzothiazole hydrochloride] | – | 13.0 days | 116% | 126% | – | – | – | – | – | ≥ 1000 mg/kg | 3.1
